Laboratory results published in patent US12162850B2, “Formulations” (Betagenon AB, priority 2019, dated 2024).

How the values were obtained:
[1] = Particle size analysis of dry-milled products (laser diffraction, Shimadzu SALD-2300); assay type: physicochemical
Experimental: Milling was performed for Examples 1a to 1c using an air jet mill (Equipment code: CP-AJM-01; Promas engineers) with the following parameters: Micronisation was repeated in all examples by performing the air jet milling for a second time using the same parameters. This allowed the particle size D90 to be reduced to less than 10 μm. [table] Four drops of Tween 20 were added to 25 mL of water and the mixture was sonicated for 3 minutes to form the dispersant solution. 0.05 g of milled material was transferred into a 250 mL glass beaker. 25 mL of the dispersant solution (Tween 20/water mixture) was added to the beaker with continuous swirling for 2 to 3 minutes. The suspension was transferred into the measuring unit and the particle size distribution measurements were conducted in triplicate.

[2] = Single dose oral pharmacokinetic studies in rabbits; assay type: in vivo, male New Zealand White rabbits; conditions: for AUCextrap / AUC(0-inf) / AUC(0-t) / Cmax / MRT last / Tmax / half-life: 90 mg/kg b.w. oral single dose
Experimental: The studies detailed below (and referred to as Examples 2 to 8) were conducted to provide comparative single dose oral pharmacokinetics data for Compound 1, as well as sodium and potassium salts of that compound, using non-coated and enteric-coated capsules in male New Zealand White rabbits.
Compound 1 was made using the process described in WO 2011/004162 and milled as described for Example 1c. The non-coated or enteric coated gelatin capsules were individually filled with 180 mg of dry-milled Compound 1 together with accompanying excipients as indicated. Both capsule types were filled with Compound 1 together with 1.8 mg of sodium docusate, 0.18 mg of PVP K30 and 9 mg of mannitol.
Similarly, Compound 2, non-coated or enteric coated gelatin capsules were individually filled with 180 mg of dry-milled Compound 2 (as obtained in Example 1f) together with 1.8 mg of sodium docusate, 0.18 mg of PVP K30 and 9 mg of mannitol.
For Compound 3, non-coated or enteric coated gelatin capsules were individually filled with 90 mg of dry-milled Compound 3 (as obtained in Example 1i) together with 0.90 mg of sodium docusate, 0.09 mg of PVP K30 and 4.50 mg of mannitol.
40 mL of the 2% w/v methyl cellulose solution was added to a 250 mL conical flask together with 10 g of 2 mm glass beads, and vigorously stirred. Compound 1 (720 mg) was slowly added to the solution and the mixture was with continuously stirred for 1 h. The homogenate was transferred to separate flask and its pH recorded. The suspension formulation was prepared before administration to the animals.
Adult healthy male New Zealand white rabbits aged approximately 2 to 3 months old were used for experimentation after 7 days of acclimatization.
To dose the filled capsules, a soft plastic dosing tube was used. The filled capsule was inserted into the dosing tube so that the short end of the capsule protrudes slightly from the tip of the tube. The tip of the capsule was dipped in mineral oil to aid swallowing.
To dose the suspension, an infant feeding tube was used. The feeding tube was inserted through the mouth of the rabbit to the oesophagus and the stomach, and ascertained that it has not been placed in the trachea before dosing to the animals. The suspension of the Compound 1 was administered through the feeding tube. After the administration of the suspension, drinking water of approximately 2.0-2.5 mL was administered to flush out the contents in the feeding tube.
The animals were restrained in a rabbit restrainer and blood samples (400-500 μL/time point) were collected via the central ear artery at 0.16, 0.25, 0.50, 1.0, 2.0, 4.0, 6.0, 8.0, 24.0, 48.0 and 72 hours post-dosing. Collected blood specimens were centrifuged at 4000 or 6000 rpm, 4° C. for 10 minutes and plasma samples were separated and stored at −80° C. until analysis.
Concentrations of the analyte of Compound 1 in New Zealand white rabbits was determined using an API 3200 Q-trap LC-MS/MS system.
Chromatographic separation was achieved on Zorbax C18, 50×4.6 mm, 5 μm column with methanol-0.1% formic acid as mobile phase with gradient elution. The flow rate was set at 1.0 mL min^−1. Detection was accomplished by a triple-quadrupole tandem mass spectrometer in multiple-reaction monitoring (MRM) scanning via electrospray ionization source, applied in the positive mode. The optimised mass transition ion-pairs for quantitation were m/z 379.999→125.000 for the compound 1 and m/z 376.165→165.00 for the ISD (Haloperidol). Calibration plots were linear over the range of 11.062 to 20594.820 ng/mL.
The data of plasma concentration to respective time points for the analyte Compound 1 were used for the pharmacokinetic analysis. Pharmacokinetic analysis was performed using non-compartmental analysis (NCA) module of Phoenix WinNonlin 6.3 software to determine the following pharmacokinetic parameters: • Cmax • Tmax • AUC0-t • AUC0-∞ • T1/2 • MRT […]

[3] = after 1st milling (air jet mill)
[4] = after 2nd milling (air jet mill)
[5] = male, New Zealand White, rabbit, plasma, po, 90 mg/kg, enteric coated capsule, 90 mg/kg b.w. oral
[6] = male, New Zealand White, rabbit, plasma, po, 90 mg/kg, non-coated capsule, 90 mg/kg b.w. oral
[7] = male, New Zealand White, rabbit, plasma, po, 90 mg/kg, standard suspension, 90 mg/kg b.w. oral
[8] = male, New Zealand White, rabbit, plasma, po, 90 mg/kg, enteric coated capsule, rabbit plasma (Examples 5, 6, 7)
[9] = male, New Zealand White, rabbit, plasma, po, 90 mg/kg, non-coated capsule, rabbit plasma (Examples 2, 3, 4)
[10] = male, New Zealand White, rabbit, plasma, po, 90 mg/kg, standard suspension (2% w/v methylcellulose), rabbit plasma (Example 8)

O=C(Nc1nc(=O)n(Cc2ccc(Cl)cc2)s1)c1ccc(Cl)cc1 [Compound 1, 4-Chloro-N-[2-[(4-chlorophenyl)methyl]-3-oxo-1,2,4-thiadiazol-5-yl]benzamide]
Particle size distribution D10 [1, 3]: 1.8 μm
Particle size distribution D50 [1, 3]: 5.0 μm
Particle size distribution D90 [1, 3]: 11.4 μm
Particle size distribution D100 [1, 3]: 33.7 μm
Particle size distribution D10 [1, 4]: 1.2 μm
Particle size distribution D50 [1, 4]: 3.7 μm
Particle size distribution D90 [1, 4]: 8.3 μm
Particle size distribution D100 [1, 4]: 21.4 μm
Particle size distribution D10 ([1]; before milling): 13.5 μm
Particle size distribution D50 ([1]; before milling): 28.0 μm
Particle size distribution D90 ([1]; before milling): 55.2 μm
Particle size distribution D100 ([1]; before milling): 187.0 μm
Plasma concentration, mean ([2]; 0.16 h, non-coated capsule, 90 mg/kg b.w. oral, rabbit): 0.000 ng/mL
Plasma concentration, mean ([2]; 0.25 h, non-coated capsule, 90 mg/kg b.w. oral, rabbit): 0.000 ng/mL
Plasma concentration, mean ([2]; 0.50 h, non-coated capsule, 90 mg/kg b.w. oral, rabbit): 50.474 ng/mL
Plasma concentration, mean ([2]; 1.00 h, enteric coated capsule, 90 mg/kg b.w. oral, rabbit): 0.000 ng/mL
Plasma concentration, mean ([2]; 1.00 h, non-coated capsule, 90 mg/kg b.w. oral, rabbit): 386.171 ng/mL
Plasma concentration, mean ([2]; 2.00 h, enteric coated capsule, 90 mg/kg b.w. oral, rabbit): 5.857 ng/mL
Plasma concentration, mean ([2]; 2.00 h, non-coated capsule, 90 mg/kg b.w. oral, rabbit): 1530.898 ng/mL
Plasma concentration, mean ([2]; 4.00 h, enteric coated capsule, 90 mg/kg b.w. oral, rabbit): 206.003 ng/mL
Plasma concentration, mean ([2]; 6.00 h, enteric coated capsule, 90 mg/kg b.w. oral, rabbit): 307.917 ng/mL
Plasma concentration, mean ([2]; 6.00 h, non-coated capsule, 90 mg/kg b.w. oral, rabbit): 25336.370 ng/mL
Plasma concentration, mean ([2]; 8.00 h, enteric coated capsule, 90 mg/kg b.w. oral, rabbit): 1505.092 ng/mL
Plasma concentration, mean ([2]; 24.00 h, enteric coated capsule, 90 mg/kg b.w. oral, rabbit): 45705.076 ng/mL
Plasma concentration, mean ([2]; 72.00 h, non-coated capsule, 90 mg/kg b.w. oral, rabbit): 35657.688 ng/mL
AUCextrap ([2]; enteric coated capsule, rabbit plasma (Examples 5, 6, 7)): 82.44 ± 9.84%
concentration at 0 h [2, 5]: 0 ng/mL
concentration at 0 h [2, 6]: 0 ng/mL
concentration at 0 h [2, 7]: 0 ng/mL
concentration at 0.16 h ([2]; male, New Zealand White, rabbit, plasma, po, 90 mg/kg, 0.16 h, enteric coated capsule, 90 mg/kg b.w. oral): 0 ng/mL
concentration at 0.16 h ([2]; male, New Zealand White, rabbit, plasma, po, 90 mg/kg, 0.16 h, standard suspension, 90 mg/kg b.w. oral): 1210 ng/mL
concentration at 0.25 h ([2]; male, New Zealand White, rabbit, plasma, po, 90 mg/kg, 0.25 h, enteric coated capsule, 90 mg/kg b.w. oral): 0 ng/mL
concentration at 0.25 h ([2]; male, New Zealand White, rabbit, plasma, po, 90 mg/kg, 0.25 h, standard suspension, 90 mg/kg b.w. oral): 4420 ng/mL
concentration at 0.5 h ([2]; male, New Zealand White, rabbit, plasma, po, 90 mg/kg, 0.50 h, enteric coated capsule, 90 mg/kg b.w. oral): 0 ng/mL
concentration at 0.5 h ([2]; male, New Zealand White, rabbit, plasma, po, 90 mg/kg, 0.50 h, standard suspension, 90 mg/kg b.w. oral): 7250 ng/mL
concentration at 1 h ([2]; male, New Zealand White, rabbit, plasma, po, 90 mg/kg, 1.00 h, standard suspension, 90 mg/kg b.w. oral): 9390 ng/mL
concentration at 2 h ([2]; male, New Zealand White, rabbit, plasma, po, 90 mg/kg, 2.00 h, standard suspension, 90 mg/kg b.w. oral): 10100 ng/mL
concentration at 4 h ([2]; male, New Zealand White, rabbit, plasma, po, 90 mg/kg, 4.00 h, non-coated capsule, 90 mg/kg b.w. oral): 13400 ng/mL
concentration at 4 h ([2]; male, New Zealand White, rabbit, plasma, po, 90 mg/kg, 4.00 h, standard suspension, 90 mg/kg b.w. oral): 11600 ng/mL
concentration at 6 h ([2]; male, New Zealand White, rabbit, plasma, po, 90 mg/kg, 6.00 h, standard suspension, 90 mg/kg b.w. oral): 139000 ng/mL
concentration at 8 h ([2]; male, New Zealand White, rabbit, plasma, po, 90 mg/kg, 8.00 h, non-coated capsule, 90 mg/kg b.w. oral): 39200 ng/mL
concentration at 8 h ([2]; male, New Zealand White, rabbit, plasma, po, 90 mg/kg, 8.00 h, standard suspension, 90 mg/kg b.w. oral): 28700 ng/mL
concentration at 24 h ([2]; male, New Zealand White, rabbit, plasma, po, 90 mg/kg, 24.00 h, non-coated capsule, 90 mg/kg b.w. oral): 63600 ng/mL
concentration at 24 h ([2]; male, New Zealand White, rabbit, plasma, po, 90 mg/kg, 24.00 h, standard suspension, 90 mg/kg b.w. oral): 18400 ng/mL
concentration at 48 h [2, 5]: 59700 ng/mL
concentration at 48 h [2, 6]: 54800 ng/mL
concentration at 48 h [2, 7]: 8830 ng/mL
concentration at 72 h ([2]; male, New Zealand White, rabbit, plasma, po, 90 mg/kg, 72.00 h, enteric coated capsule, 90 mg/kg b.w. oral): 52300 ng/mL
concentration at 72 h ([2]; male, New Zealand White, rabbit, plasma, po, 90 mg/kg, 72.00 h, standard suspension, 90 mg/kg b.w. oral): 3030 ng/mL
AUC(0-inf) [2, 8]: 18600 ± 12800 µg·h/mL
AUC(0-t) [2, 8]: 2990 ± 666 µg·h/mL
Cmax [2, 8]: 60800 ± 15700 ng/mL
MRT last [2, 8]: 45.2 ± 2.54 h
Tmax [2, 8]: 40 ± 13.9 h
half-life [2, 8]: 252 ± 133 h
AUC(0-inf) [2, 9]: 7390 ± 3870 µg·h/mL
AUC(0-t) [2, 9]: 3450 ± 405 µg·h/mL
Cmax [2, 9]: 63700 ± 3790 ng/mL
MRT last [2, 9]: 36.9 ± 2.56 h
Tmax [2, 9]: 32 ± 13.9 h
half-life [2, 9]: 68.2 ± 43 h
AUC(0-inf) [2, 10]: 1120 µg·h/mL
AUC(0-t) [2, 10]: 952 ± 175 µg·h/mL
Cmax [2, 10]: 31200 ± 11500 ng/mL
MRT last [2, 10]: 25 ± 5 h
Tmax [2, 10]: 19 ± 9 h
half-life [2, 10]: 36 ± 8 h
AUCextrap ([2]; non-coated capsule, rabbit plasma (Examples 2, 3, 4)): 46.71 ± 19.06%
AUCextrap ([2]; standard suspension (2% w/v methylcellulose), rabbit plasma (Example 8)): 14 ± 9%
